Measured values as given in the supplement of paper PMC11997997.

Tests used:
[1] = test system: Mycobacterium tuberculosis CDC1551 (intracellular, in murine BMDM); assay: area under intracellular growth-inhibition dose-response curve (AUC (% inhibition x dose, relative)); higher = more potent; settings: duration: 6 days; dose range: 0.13-80 uM, 8 points
Summary of the method: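 In 384-well opaque plates, primary murine bone marrow-derived macrophages were infected with luciferase-expressing M. tuberculosis CDC1551 (multiplicity of infection 1, 1 h) 24 h after seeding, then treated for 6 days across final concentrations of 80–0.13 μM. Growth was measured by Bright-Glo luciferin assay, normalised to a reference drug control and the lowest-concentration wells. The reported value is the area under the growth-inhibition dose–response curve from GraphPad Prism.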

[2] = test system: murine bone marrow-derived macrophages; assay: area under cytotoxicity dose-response curve (AUC (% cytotoxicity x dose, relative)); higher = more cytotoxic; settings: duration: 6 days; dose range: 0.13-80 uM, 8 points
Summary of the method: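 Cytotoxicity is expressed as the area under the dose–response curve from GraphPad Prism version 10. To obtain it, primary murine bone marrow-derived macrophages were incubated for 6 days at 37 °C in 5% CO2 across final concentrations of 80–0.13 μM. Viability came from CellTiter-Glo luminescence, and percent cytotoxicity was normalised to vehicle and positive control wells.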

SMILES | area under intracellular growth-inhibition dose-response curve [1] | area under cytotoxicity dose-response curve [2]
NC1=NC[C@@H](CC2CCCCC2)N1CCc1cc(C(F)(F)F)cc(C(F)(F)F)c1 | 52.6 | 109
CCn1c(SCc2ccc(C(=O)OC)o2)nnc1-c1c[nH]c2ccccc12 | 117 | 20.1
Nc1c2c(nc3sc4c(c13)CCCCC4)CCCC2 | 171 | 14.6
CC1CCC(C(C)C)C(OC(=O)C[n+]2c(-c3ccccc3)n(C)c3ccccc32)C1.[Cl-] (configuration not stated) | 202 | 56.7
CN(C)S(=O)(=O)c1ccc(C(=O)OCC(=O)Nc2ccc3c(c2)OCO3)cc1 | 11.2 | 38.4
O=C(CC12CC3CC(CC(C3)C1)C2)NCc1ccco1 | 224 | 60.5
COc1c(/C=N/NC(=O)c2ccncc2)c(CCN(C)C(C)=O)cc2c1OCO2 | 252 | 96.3
O=C(COC(=O)c1ccc([N+](=O)[O-])o1)Nc1ccc(F)cc1 | 144 | < 0
COc1c(/C=N/NC(N)=S)c(C)nn1-c1ccccc1 | 194 | 32.6
Cc1c(Cl)cccc1NC(=S)NCC(O)c1ccccc1 (configuration not stated) | 158 | 81.9
CC1CCc2c(nc3sc4c(c3c2N)CCCC4)C1 (configuration not stated) | 206 | 60.7
NC(=S)N/N=C/C=C/c1ccccc1 | 243 | 82.2
O=C(NC1C2CC3CC(C2)CC1C3)c1ccc2c(c1)OCO2 (configuration not stated) | 226 | 123
C/C(CC(=O)NCCN1CCOCC1)=N\NC(=O)c1ccncc1 | 206 | 12.5
COc1ccc(NC(=S)Nc2ccc(Oc3ccccc3)cc2)cc1 | 233 | < 0
NC1=NC(=O)/C(=C/c2ccc(Cl)cc2Cl)S1 | 129 | < 0
CCOC(=O)c1oc2nc(C(C)C)c3c(c2c1N)CC(C)(C)OC3 | 124 | 80.3
O=C(N/N=C/c1c(F)c(F)c(F)c(F)c1F)c1cccc(S(=O)(=O)N2CCOCC2)c1 | 45.4 | 128
CNc1cc(Cl)c2nonc2c1[N+](=O)[O-] | 3.12 | 10.1

SMILES | area under intracellular growth-inhibition dose-response curve [1] | area under cytotoxicity dose-response curve [2]
COc1ccc(/C=C/C(=O)c2ccc([N+](=O)[O-])o2)cc1OC | 3.95 | 118
CC(=O)Nc1sc(N/N=C/c2ccc(O)cc2)nc1-c1ccc(C)cc1 | 181 | 84.1
CCC[C@@H](CN1CCC[C@H]1CN1C(N)=NC[C@H]1CC(C)C)N1C[C@@H]([C@H](C)CC)N(CCc2ccc(Cl)c(Cl)c2)C1=N | 129 | 13.4
CCCCNC(=O)/C=C/c1cccs1 | 191 | 7.87
CCC(CO)NCCNC(CC)CO (configuration not stated) | 154 | 88.1
CC(C)CC(=O)NC(=S)Nc1ccc(NC(=O)c2cccs2)cc1 | 271 | 33.2
O=C(NC1CCCCCCC1)c1ccc(Br)cc1 | 268 | < 0
CCOC(=O)/C=C/C(=O)NNC(=O)c1ccccc1Cl | 49.3 | 186
COc1cc(OC)c(/C=N/NC(=O)c2ccncc2)cc1Br | 249 | 98
CNc1nc(SC)nc2ccsc12 | 221 | 11.7
O=C(Nc1ccc(C(=O)Oc2ccccc2)c(O)c1)c1ccco1 | 223 | 4.02
NC(=S)N/N=C/c1ccc(-c2ccc(SC(F)F)cc2)o1 | 271 | 46.9
O=c1c2ccccc2oc2nc3n(c(=O)c12)CCCS3 | 223 | 47.5
C=CCNC(=S)NNC(=O)CC12CC3CC(CC(C3)C1)C2 | 222 | 8.72
O=C(NCCC1=CCCCC1)c1ccc(F)cc1 | 122 | 3.13
O=C(NCC1CCCCC1)c1ccco1 | 251 | 106
CC(/C=C/c1ccccc1)=N\NC(N)=S | 266 | 31.1
CCCCCCNC(=O)c1ccc(Br)o1 | 225 | < 0
CSc1sccc1/C=N/NC(=O)c1ccncc1 | 249 | 15.4

SMILES | area under intracellular growth-inhibition dose-response curve [1] | area under cytotoxicity dose-response curve [2]
CCc1ccc(C(=O)NCc2cccs2)s1 | 220 | 17.6
O=C(NC1CCCCCCC1)c1ccc(Br)o1 | 251 | 38.5
O=C(CSc1ccc(Cl)cc1)NNC(=O)c1ccncc1 | 241 | 107
Cc1ccnc2c1ccc1cccnc12 | 149 | 208
O=C(CC1CCCCC1)NCC1CCCO1 (configuration not stated) | 165 | 25.1
COc1cccc(OCC(=O)NC2CCCCCC2)c1 | 266 | 22.4
O=C(COC(=O)c1cc(Cl)nc(Cl)c1)NCCc1ccc(F)cc1 | 108 | 4.71
C=CCN1/C(=C/c2ccc3cc(C)ccc3[n+]2CC)C=Cc2ccccc21.[Br-] | 102 | 86.8
O=C(N/N=C/c1ccc([N+](=O)[O-])o1)c1cc2ccccc2o1 | 106 | 43.2
O=C(CC12CC3CC(CC(C3)C1)C2)N1CCCC1 | 216 | 75.6
O=C(NCCc1ccncc1)Nc1cccc(Cl)c1 | 11.9 | 79.9
Cc1ccc(C(=O)OCC(=O)Nc2ccccc2)cc1S(=O)(=O)N1CCCCC1 | 94.3 | < 0
O=C(N/N=C/c1ccc(Sc2nc3ccccc3[nH]2)o1)c1ccncc1 | 269 | 34.4
Br.CCCc1cc(-c2nc(-c3ccc(C)cc3)cs2)ccn1 | 80.7 | 45.6
O=C(NCc1cccs1)c1ccc(Br)o1 | 191 | < 0
CC1CCCN(C(=O)c2ccc(CNc3c(N4CCCCC4)c(=O)c3=O)cc2)C1 (configuration not stated) | 271 | 23
O=C(C=Cc1ccccc1)N1CCCCC1 | 119 | 46.5
O=C(N/N=C/C=C/c1ccccc1)c1ccncc1 | 266 | < 0
